Test results as given in ChEMBL document CHEMBL6092180 (Eur J Med Chem, 2024).
In brackets after ≈: the same amount, converted by molar mass. Activity calls are given as the source filed them. The calls are words filed in the database; no cut-off is given here.

Key:
Candida albicans [1] = assay: Effect on sterol composition in Candida albicans SC5314 assessed as lanosterol content at 0.05 microg/ml measured after 16 hrs by GC-MS analysis relative to control; assay type: functional; conditions: dose 0.05 µg/ml
[2] = Tmax in Sprague-Dawley rat at 10 mg/kg, po by LC-MS/MS analysis; assay type: ADME, organism-based; conditions: in vivo
[3] = Tmax in Sprague-Dawley rat at 3 mg/kg, iv by LC-MS/MS analysis; assay type: ADME, organism-based; conditions: in vivo
Candida parapsilosis = assay: Antifungal activity against Candida parapsilosis GIM 2.190 assessed as inhibition of fungal growth by CLSI M27-A3 guidelines based method; assay type: functional; conditions: Lodderomyces parapsilosis
[4] = Half-life in Sprague-Dawley rat at 3 mg/kg, iv by LC-MS/MS analysis; assay type: ADME, organism-based; conditions: in vivo
Candida albicans [5] = assay: Antifungal activity against fluconazole-resistant Candida albicans clinical isolate 311 assessed as inhibition of fungal growth by CLSI M27-A3 guidelines based method; assay type: functional
Candida albicans [6] = assay: Antibiofilm activity against fluconazole-resistant Candida albicans CPCC400616 assessed as inhibition of metabolic activity of biofilm measured after 6 hrs by XTT reduction assay; assay type: functional
Candida tropicalis = assay: Antifungal activity against Candida tropicalis GIM 2.183 assessed as inhibition of fungal growth by CLSI M27-A3 guidelines based method; assay type: functional
Candida albicans [7] = assay: Antifungal activity against fluconazole-resistant Candida albicans clinical isolate 904 assessed as inhibition of fungal growth by CLSI M27-A3 guidelines based method; assay type: functional
Cryptococcus neoformans = assay: Antifungal activity against Cryptococcus neoformans CGMCC 2.3161 assessed as inhibition of fungal growth by CLSI M27-A3 guidelines based method; assay type: functional
Candida albicans [8] = assay: Antifungal activity against fluconazole-resistant Candida albicans clinical isolate 100 assessed as inhibition of fungal growth by CLSI M27-A3 guidelines based method; assay type: functional
Candida albicans [9] = assay: Effect on sterol composition in Candida albicans SC5314 assessed as obtusifoliol content at 0.05 microg/ml measured after 16 hrs by GC-MS analysis relative to control; assay type: functional; conditions: dose 0.05 µg/ml
[10] = Cmax in Sprague-Dawley rat at 3 mg/kg, iv by LC-MS/MS analysis; assay type: ADME, organism-based; conditions: in vivo
[11] = AUC (0 to infinity) in Sprague-Dawley rat at 3 mg/kg, iv by LC-MS/MS analysis; assay type: ADME, organism-based; conditions: in vivo
Nakaseomyces glabratus = assay: Antifungal activity against Candida glabrata assessed as inhibition of fungal growth by CLSI M27-A3 guidelines based method; assay type: functional
[12] = Clearance in Sprague-Dawley rat at 3 mg/kg, iv by LC-MS/MS analysis; assay type: ADME, organism-based; conditions: in vivo
Candida albicans [13] = assay: Inhibition of hyphal formation in fluconazole-resistant Candida albicans CPCC400616 assessed as reduction in invasive ability at 2 microg/ml measured after 4 hrs by inverted microscopic analysis; assay type: functional, organism-based; conditions: dose 2.0 µg/ml
[14] = Metabolic stability in human liver microsomes assessed as half-life preincubated for 10 mins followed by NADPH addition and measured after 60 mins by LC-MS/MS analysis; assay type: ADME, Microsome; conditions: time 70 min
[15] = MRT(0 to t) in Sprague-Dawley rat at 3 mg/kg, iv by LC-MS/MS analysis; assay type: ADME, organism-based; conditions: in vivo
[16] = Apparent volume of distribution in Sprague-Dawley rat at 3 mg/kg, iv by LC-MS/MS analysis; assay type: ADME, organism-based; conditions: in vivo, read-out: Vz
[17] = Cmax in Sprague-Dawley rat at 10 mg/kg, po by LC-MS/MS analysis; assay type: ADME, organism-based; conditions: in vivo
Candida albicans [18] = assay: Fungicidal activity fluconazole and iodiconazole resistant Candida albicans clinical isolate 17# assessed as decrease in number of fungi at 4 times of MIC measured within 24 hrs by time-kill kinetics assay; assay type: functional, organism-based
Candida albicans [19] = assay: Effect on sterol composition in Candida albicans SC5314 assessed as 14alpha-demethyllanosterol content at 0.05 microg/ml measured after 16 hrs by GC-MS analysis (reference value: […] %); assay type: functional; conditions: dose 0.05 µg/ml
Candida albicans [20] = assay: Fungicidal activity fluconazole and iodiconazole resistant Candida albicans clinical isolate 17# assessed as decrease in number of fungi at 2 times of MIC measured within 24 hrs by time-kill kinetics assay; assay type: functional, organism-based
Candida albicans [21] = assay: Fungicidal activity against fluconazole and iodiconazole resistant Candida albicans clinical isolate 17# incubated for 48 hrs by PDA plate based method; assay type: functional
Candida albicans [22] = assay: Antifungal activity against Candida albicans SC5314 assessed as inhibition of fungal growth by CLSI M27-A3 guidelines based method; assay type: functional
Candida albicans [23] = assay: Antifungal activity against fluconazole and iodiconazole resistant Candida albicans clinical isolate 17# assessed as inhibition of fungal growth by CLSI M27-A3 guidelines based method; assay type: functional
Aspergillus fumigatus = assay: Antifungal activity against Aspergillus fumigatus cgmcc 3.7795 assessed as inhibition of fungal growth by CLSI M27-A3 guidelines based method; assay type: functional
Candida albicans [24] = assay: Antifungal activity against fluconazole-resistant Candida albicans clinical isolate 103 assessed as inhibition of fungal growth by CLSI M27-A3 guidelines based method; assay type: functional
Candida albicans [25] = assay: Antibiofilm activity against fluconazole-resistant Candida albicans CPCC400616 assessed as inhibition of metabolic activity of biofilm measured after 24 hrs by XTT reduction assay; assay type: functional
Candida albicans [26] = assay: Antifungal activity against Candida albicans GIM 2.194 assessed as inhibition of fungal growth by CLSI M27-A3 guidelines based method; assay type: functional
Candida albicans [27] = assay: Antifungal activity against fluconazole-resistant Candida albicans clinical isolate 901 assessed as inhibition of fungal growth by CLSI M27-A3 guidelines based method; assay type: functional
[28] = Cytotoxicity against HUVEC cells assessed as inhibition of cell growth incubated for 72 hrs by MTT assay; assay type: toxicity, cell-based; conditions: human
[29] = Cytotoxicity against human OVCAR-3 cells assessed as inhibition of cell growth incubated for 72 hrs by MTT assay; assay type: toxicity, cell-based
Candida albicans [30] = assay: Effect on sterol composition in Candida albicans SC5314 assessed as ergosterol content at 0.05 microg/ml measured after 16 hrs by GC-MS analysis (reference value: 96.96 %); assay type: functional; conditions: dose 0.05 µg/ml
Pichia kudriavzevii = assay: Antifungal activity against Candida krusei GIM 2.1 assessed as inhibition of fungal growth by CLSI M27-A3 guidelines based method; assay type: functional
[31] = Oral bioavailability in Sprague-Dawley rat at 10 mg/kg by LC-MS/MS analysis; assay type: ADME, organism-based; conditions: in vivo
[32] = Half-life in Sprague-Dawley rat at 10 mg/kg, po by LC-MS/MS analysis; assay type: ADME, organism-based; conditions: in vivo
Candida albicans [33] = assay: Fungicidal activity fluconazole and iodiconazole resistant Candida albicans clinical isolate 17# assessed as decrease in number of fungi at 1 times of MIC measured within 24 hrs by time-kill kinetics assay; assay type: functional, organism-based
[34] = Cytotoxicity against HEK293T cells assessed as inhibition of cell growth incubated for 72 hrs by MTT assay; assay type: toxicity, cell-based, HEK-293T; conditions: human
[35] = AUC (0 to infinity) in Sprague-Dawley rat at 10 mg/kg, po by LC-MS/MS analysis; assay type: ADME, organism-based; conditions: in vivo
Candida albicans [36] = assay: Fungicidal activity against Candida albicans SC5314 incubated for 48 hrs by PDA plate based method; assay type: functional
Candida albicans [37] = assay: Antifungal activity against fluconazole-resistant Candida albicans CaR assessed as inhibition of fungal growth by CLSI M27-A3 guidelines based method; assay type: functional
Candida albicans [38] = assay: Effect on sterol composition in Candida albicans SC5314 assessed as other sterols content at 0.05 microg/ml measured after 16 hrs by GC-MS analysis (reference value: 1.06 %); assay type: functional; conditions: dose 0.05 µg/ml
Candida albicans [39] = assay: Effect on sterol composition in Candida albicans SC5314 assessed as eburicol content at 0.05 microg/ml measured after 16 hrs by GC-MS analysis relative to control; assay type: functional; conditions: dose 0.05 µg/ml
[40] = Cytotoxicity against human NCI-H460 cells assessed as inhibition of cell growth incubated for 72 hrs by MTT assay; assay type: toxicity, cell-based
Candida albicans [41] = assay: Antifungal activity against fluconazole-resistant Candida albicans clinical isolate 632 assessed as inhibition of fungal growth by CLSI M27-A3 guidelines based method; assay type: functional
[42] = Metabolic stability in human liver microsomes assessed as parent compound remaining preincubated for 10 mins followed by NADPH addition and measured after 60 mins by LC-MS/MS analysis; assay type: ADME, Microsome; conditions: time 70 min, read-out: Stability

## C[C@@H](N(C)Cc1ccc(C#Cc2ccc(F)cc2F)cc1)[C@](O)(Cn1cncn1)c1ccc(F)cc1F
Candida albicans [1]
  Activity: 9.97%
[2]
  Tmax: 2.33 h
[3]
  Tmax: 4.98 min
Candida parapsilosis
  MIC80: 0.006 µg/mL (≈ 0.0118 µM)
[4]
  half-life: 6.57 h
Candida albicans [5]
  MIC80: 8 µg/mL (≈ 15.7 µM)
Candida albicans [6]
  MIC50: 0.5 µg/mL (≈ 0.983 µM)
Candida tropicalis
  MIC80: 0.006 µg/mL (≈ 0.0118 µM)
Candida albicans [7]
  MIC80: 8 µg/mL (≈ 15.7 µM)
Cryptococcus neoformans
  MIC80: 0.013 µg/mL (≈ 0.0256 µM)
Candida albicans [8]
  MIC80: 4 µg/mL (≈ 7.87 µM)
Candida albicans [9]
  Activity: 13.69%
[10]
  Cmax: 2460 ng/mL
[11]
  AUC(0-inf): 1830 ng·h/mL
Nakaseomyces glabratus
  MIC80: 0.01 µg/mL (≈ 0.0197 µM)
[12]
  clearance: 27.5 mL/min/kg
Candida albicans [13]
  inhibition: Active; Blockade Of Morphological Transformation Observed
[14]
  half-life: 0.503 h
[15]
  MRT last: 1.92 h
[16]
  Vd: 15.7 L/kg
[17]
  Cmax: 283 ng/mL
Candida albicans [18]
  Activity: Active; Effectively Kills Fungal Cells In Viable Colony Counts
Candida albicans [19]
  Activity: 2.79%
Candida albicans [20]
  Activity: Active
Candida albicans [21]
  MFC: 1 µg/mL (≈ 1.97 µM)
Candida albicans [22]
  MIC80: 0.006 µg/mL (≈ 0.0118 µM)
Candida albicans [23]
  MIC80: 0.25 µg/mL (≈ 0.492 µM)
Aspergillus fumigatus
  MIC80: 0.05 µg/mL (≈ 0.0983 µM)
Candida albicans [24]
  MIC80: 4 µg/mL (≈ 7.87 µM)
Candida albicans [25]
  MIC50: 4 µg/mL (≈ 7.87 µM)
Candida albicans [26]
  MIC80: 0.006 µg/mL (≈ 0.0118 µM)
Candida albicans [27]
  MIC80: 4 µg/mL (≈ 7.87 µM)
[28]
  IC50 at 72 h: > 10 µM
[29]
  IC50 at 72 h: > 10 µM
Candida albicans [30]
  Activity: 0.29%
Pichia kudriavzevii
  MIC80: 0.01 µg/mL (≈ 0.0197 µM)
[31]
  bioavailability: 26.3%
[32]
  half-life: 4.08 h
Candida albicans [33]
  Activity: Active
[34]
  IC50 at 72 h: > 10 µM
[35]
  AUC(0-inf): 1600 ng·h/mL
Candida albicans [36]
  MFC: 0.125 µg/mL (≈ 0.246 µM)
Candida albicans [37]
  MIC80: 0.25 µg/mL (≈ 0.492 µM)
Candida albicans [38]
  Activity: 3.13%
Candida albicans [39]
  Activity: 70.13%
[40]
  IC50 at 72 h: > 10 µM
Candida albicans [41]
  MIC80: 4 µg/mL (≈ 7.87 µM)
[42]
  remaining at 1 h: 25.9%
